target: T1, TDP1 (Homo sapiens, UniProt Q9NUW8); assay: Real-time fluorescence detection of TDP1 activity, single-stranded FAM/BHQ biosensor; format: biochemical; details: 37 compared to 36; 42 compared to 41; ratio of IC50
T1 construct: made in house; host or cells: E. coli
Description: Conditions and details for our real-time detection of TDP1 activity using the single-stranded and hairpin fluorescent biosensors were reported in our previous work[47]. Briefly, the approach consists in fluorescence intensity measurement of the reaction of quencher removal from the fluorophore-quencher coupled DNA-oligonucleotide catalysed by TDP1 in the presence of inhibitor and in the absence of it (the control samples contained 1% DMSO). Reaction mixtures (200 µl) contained TDP1 buffer (50 mM Tris-HCl, pH 8.0, 50 mM NaCl, 7 mM β-mercaptoethanol), oligonucleotide (50 nM substrate of TDP1), testable inhibitor and purified TDP1 (1.5 nM). The reactions were incubated at a constant temperature of 26 °C in a POLARstar OPTIMA fluorimeter, BMG LABTECH, GmbH, to measure fluorescence every 55 s (Ex485/Em520 nm) during the linear phase (here data from 0 to 8 min). The average values of half maximal inhibitory concentration (IC50) were determined using an eleven-point concentration response curve in three independent experiments and calculated using MARS Data Analysis 2.0 (BMG LABTECH).
To discover inhibitors of TDP1 we recently developed original single-stranded and hairpin fluorophore–quencher coupled DNA-biosensors for real-time measurement of TDP1 cleavage activity. The single-stranded substrate is a 16-mer oligonucleotide containing both 5′-FAM fluorophore donor and a quenching 3′-BHQ moiety (Figure 1(A)). When the quencher is removed by TDP1, the fluorescence intensity increases and can be measured by fluorimeter (TDP1 catalysed reaction on biosensor is shown in Figure 3(A). Fluorescence intensity declines in the presence of inhibitor, the resulting curves of the dependence of TDP1 residual activity as a function of the concentration of inhibitors were obtained using 4-parameter logistic regression fit, which was used to calculate IC50 values[47]^,[58].
For primary screening, the effect of a large group of disaccharide nucleosides and their hydrophobic derivatives on human recombinant TDP1 activity has been evaluated by fluorescent method on a single-stranded substrate described above.

T1 sequence (Q9NUW8 whole entry): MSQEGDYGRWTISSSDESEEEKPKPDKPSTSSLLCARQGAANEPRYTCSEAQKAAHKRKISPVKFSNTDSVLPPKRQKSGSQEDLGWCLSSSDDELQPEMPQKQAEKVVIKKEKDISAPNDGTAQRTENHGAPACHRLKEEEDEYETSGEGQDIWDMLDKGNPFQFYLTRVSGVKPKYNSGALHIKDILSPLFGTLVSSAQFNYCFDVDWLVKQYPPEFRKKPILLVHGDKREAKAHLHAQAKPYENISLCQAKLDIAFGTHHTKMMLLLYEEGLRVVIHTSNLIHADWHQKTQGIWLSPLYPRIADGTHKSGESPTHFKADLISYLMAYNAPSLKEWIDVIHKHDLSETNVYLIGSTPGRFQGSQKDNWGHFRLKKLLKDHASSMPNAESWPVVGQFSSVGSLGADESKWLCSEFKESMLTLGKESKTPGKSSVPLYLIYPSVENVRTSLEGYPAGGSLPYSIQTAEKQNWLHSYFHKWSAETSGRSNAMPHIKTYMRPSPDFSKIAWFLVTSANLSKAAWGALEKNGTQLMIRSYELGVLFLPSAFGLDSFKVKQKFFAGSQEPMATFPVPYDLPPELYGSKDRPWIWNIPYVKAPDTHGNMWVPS

Row | Increase of efficiency of TDP1 inhibition by appending TBDPS at 5'-position | SMILES
1 | about 1.6 times | CC(C)(C)[Si](OC[C@H]1O[C@@H](n2ccc(NC(=O)c3ccccc3)nc2=O)C[C@@H]1O[C@@H]1O[C@H](COC(=O)c2ccccc2)[C@@H](OC(=O)c2ccccc2)[C@H]1OC(=O)c1ccccc1)(c1ccccc1)c1ccccc1 [Compound 37]
2 | about 3.5 times | CC(C)(C)[Si](OC[C@H]1O[C@@H](n2cc(I)c(=O)[nH]c2=O)C[C@@H]1O[C@@H]1O[C@H](COC(=O)c2ccccc2)[C@@H](OC(=O)c2ccccc2)[C@H]1OC(=O)c1ccccc1)(c1ccccc1)c1ccccc1 [Compound 42]

same assay, conditions: single-stranded fluorescent biosensor 50 nM, TDP1 1.5 nM, 26 °C; read-out: IC50 (half-maximal inhibitory concentration) of TDP1 activity

Row | SMILES | IC50 [µM]
3 | O=C(Nc1ccn([C@@H]2O[C@H](CO)[C@@H](O)[C@H]2O[C@@H]2O[C@H](COC(=O)c3ccccc3)[C@@H](OC(=O)c3ccccc3)[C@H]2OC(=O)c2ccccc2)c(=O)n1)c1ccccc1 [Compound 13] | 2.6 ± 0.2
4 | Cc1cn([C@H]2C[C@H](O[C@@H]3O[C@H](COC(=O)c4ccccc4)[C@@H](OC(=O)c4ccccc4)[C@H]3OC(=O)c3ccccc3)[C@@H](CO[C@@H]3O[C@H](COC(=O)c4ccccc4)[C@@H](OC(=O)c4ccccc4)[C@H]3OC(=O)c3ccccc3)O2)c(=O)[nH]c1=O [Compound 33] | 1 ± 0.1
5 | CC(C)[Si]1(C(C)C)OC[C@H]2O[C@@H](n3ccc(NC(=O)c4ccccc4)nc3=O)[C@H](O[C@@H]3O[C@H](COC(=O)c4ccccc4)[C@@H](OC(=O)c4ccccc4)[C@H]3OC(=O)c3ccccc3)[C@@H]2O[Si](C(C)C)(C(C)C)O1 [Compound 16] | 0.4 ± 0.1

Results, then the molecule that gave them:

Row | IC50 [µM] | SMILES
6 | 1.5 ± 0.2 | O=C(Nc1ccn([C@H]2C[C@H](O[C@@H]3O[C@H](COC(=O)c4ccccc4)[C@@H](OC(=O)c4ccccc4)[C@H]3OC(=O)c3ccccc3)[C@@H](CO)O2)c(=O)n1)c1ccccc1 [Compound 36]
7 | 0.9 ± 0.1 | CC(C)(C)[Si](OC[C@H]1O[C@@H](n2ccc(NC(=O)c3ccccc3)nc2=O)C[C@@H]1O[C@@H]1O[C@H](COC(=O)c2ccccc2)[C@@H](OC(=O)c2ccccc2)[C@H]1OC(=O)c1ccccc1)(c1ccccc1)c1ccccc1 [Compound 37]
8 | 0.8 ± 0.1 | CC(C)(C)[Si](OC[C@H]1O[C@@H](n2cc(I)c(=O)[nH]c2=O)C[C@@H]1O[C@@H]1O[C@H](COC(=O)c2ccccc2)[C@@H](OC(=O)c2ccccc2)[C@H]1OC(=O)c1ccccc1)(c1ccccc1)c1ccccc1 [Compound 42]

same assay, conditions: single-stranded fluorescent biosensor, primary screening

Row | SMILES | Inhibitory effect on TDP1 activity (in words)
9 | Cc1cn([C@@H]2O[C@H](CO)[C@@H](O)[C@H]2O[C@@H]2O[C@H](CO)[C@@H](O)[C@H]2O)c(=O)[nH]c1=O [Compound 5] | not inhibited
10 | Nc1nc2c(ncn2[C@@H]2O[C@H](CO)[C@@H](O)[C@H]2O[C@@H]2O[C@H](CO)[C@@H](O)[C@H]2O)c(=O)[nH]1 [Compound 8] | not inhibited
11 | Nc1ncnc2c1ncn2[C@@H]1O[C@H](CO)[C@@H](O)[C@H]1O[C@@H]1O[C@H](CO)[C@@H](O)[C@H]1O [Compound 1] | not inhibited
12 | Nc1ccn([C@@H]2O[C@H](CO)[C@@H](O)[C@H]2O[C@@H]2O[C@H](CO)[C@@H](O)[C@H]2O)c(=O)n1 [Compound 12] | not inhibited
13 | Cc1cn([C@@H]2C[C@H](O[C@@H](C=O)O[C@@H](C=O)CO)[C@@H](CO)O2)c(=O)[nH]c1=O [Compound 30] | did not lead to the noticeable inhibitory activity
14 | O=c1ccn([C@@H]2O[C@H](CO)[C@@H](O)[C@H]2O[C@@H]2O[C@H](CO)[C@@H](O)[C@H]2O)c(=O)[nH]1 [Compound 17] | not inhibited
15 | Cc1cn([C@H]2C[C@H](O[C@@H]3O[C@H](COP(=O)([O-])[O-])[C@@H](O)[C@H]3O)[C@@H](CO)O2)c(=O)[nH]c1=O.[Na+].[Na+] [Compound 25] | does not lead to the noticeable inhibitory effect
16 | Nc1ncnc2c1ncn2[C@H]1C[C@H](O[C@@H]2O[C@H](CO)[C@@H](O)[C@H]2O)[C@@H](CO)O1 [Compound 22] | not inhibited
17 | Cc1cn([C@H]2C[C@H](O[C@@H]3O[C@H](CO)[C@@H](O)[C@H]3O)[C@@H](COP(=O)(O)O)O2)c(=O)[nH]c1=O.N.N [Compound 26] | does not lead to the noticeable inhibitory effect
18 | Cc1cn([C@H]2C[C@H](O[C@@H]3OC[C@@H](O)[C@@H](O)[C@H]3O)[C@@H](CO)O2)c(=O)[nH]c1=O [Compound 27] | did not observe any inhibitory effect
19 | CC(=O)O[C@H]1[C@H](O[C@H]2C[C@H](n3cc(C)c(=O)[nH]c3=O)O[C@@H]2CO)OC[C@@H](OC(C)=O)[C@H]1OC(C)=O [Compound 28] | did not observe any inhibitory effect

Results, then the molecule that gave them:

Row | Inhibitory effect on TDP1 activity (in words) | SMILES
20 | not inhibited | Nc1ccn([C@H]2C[C@H](O[C@@H]3O[C@H](CO)[C@@H](O)[C@H]3O)[C@@H](CO)O2)c(=O)n1 [Compound 35]
21 | did not observe any inhibitory effect | O=c1[nH]c(=O)n([C@H]2C[C@H](O[C@@H]3OC[C@@H](O)[C@@H](O)[C@H]3O)[C@@H](CO)O2)cc1I [Compound 40]
22 | not inhibited | Cc1cn([C@H]2C[C@H](O)[C@@H](CO[C@@H]3O[C@H](CO)[C@@H](O)[C@H]3O)O2)c(=O)[nH]c1=O [Compound 44]
23 | weak inhibitory effect | O=c1ccn([C@H]2C[C@H](O)[C@@H](CO[C@@H]3O[C@H](CO)[C@@H](O)[C@H]3O)O2)c(=O)[nH]1 [Compound 47]
24 | not inhibited | O=c1ccn([C@H]2C[C@H](O[C@@H]3O[C@H](CO)[C@@H](O)[C@H]3O)[C@@H](CO)O2)c(=O)[nH]1 [Compound 38]
25 | not inhibited | Nc1ccn([C@H]2C[C@H](O)[C@@H](CO[C@@H]3O[C@H](CO)[C@@H](O)[C@H]3O)O2)c(=O)n1 [Compound 46]
26 | not inhibited | Nc1nc2c(ncn2[C@H]2C[C@H](O[C@@H]3O[C@H](CO)[C@@H](O)[C@H]3O)[C@@H](CO)O2)c(=O)[nH]1 [Compound 34]
27 | weak inhibitory effect | Nc1nc2c(ncn2[C@H]2C[C@H](O)[C@@H](CO[C@@H]3O[C@H](CO)[C@@H](O)[C@H]3O)O2)c(=O)[nH]1 [Compound 45]
28 | not inhibited | Nc1ncnc2c1ncn2[C@H]1C[C@H](O)[C@@H](CO[C@@H]2O[C@H](CO)[C@@H](O)[C@H]2O)O1 [Compound 43]

— article PMC6136360, “Novel group of tyrosyl-DNA-phosphodiesterase 1 inhibitors based on disaccharide nucleosides as drug prototypes for anti-cancer therapy” (Journal of Enzyme Inhibition and Medicinal Chemistry, 2018)
